US20170312253A1 (The Third Affiliated Hospital, Third Military Medical …, priority 2014, published 2017)

Legend:
[1] = target: Aβ42 (Homo sapiens, UniProt P05067); experiment: Western blot determination of aggregation-inhibitive effect on Aβ; format: biochemical; conditions: read-out: inhibition of Aβ from forming aggregates (Western blot)
[2] = test system: APPswe/PS1DE9 (AD) transgenic mice; experiment: Open field test; format: in vivo; conditions: AD mice vs control group
Method: APPswe/PS1DE9 (AD) transgenic mice were purchased from Jackson Laboratory, USA (No. 005864), raised in the SPF grade animal house of The Third Affiliated Hospital of The Third Military Medical University. All the processes and correlated experiments applied to the mice were approved and filed with the Animal Ethics Committee of the Third Military Medical University. […] Alternatively, the daily dose for the prophylactic group may be 6.4 mg/kg, and the daily dose for the treatment group may be 12.8 mg/kg. Administration from 3-month old to 9-month old is the prophylactic test, and administration from 9-month old to 12-month old is the therapeutic test After reaching a stated time, the mice in each group received behavioral tests according to the method in the follows. Three mice in each group were taken for Golgi staining. […] The entire process was recorded by video, and analyzed with an image analysis software (ANY-maze, Stoelting). In the platform test, the escape path length and escape latency were measured and calculated. In the probe test, the time in each quadrant and the time across platform were measured. […] In the open field test, the mouse was put in the center of an open field for 3 min, and its path was recorded by a tracking system (Limelight, ActiMetrics). At the same time, the numbers of rearing, grooming, defecation and urination of the mouse were recorded.

[3] = test system: astrocyte; experiment: Astrocyte reaction immunostaining (GFAP); format: in vivo; conditions: AD mice
Method: APPswe/PS1DE9 (AD) transgenic mice were purchased from Jackson Laboratory, USA (No. 005864), raised in the SPF grade animal house of The Third Affiliated Hospital of The Third Military Medical University. All the processes and correlated experiments applied to the mice were approved and filed with the Animal Ethics Committee of the Third Military Medical University. […] Alternatively, the daily dose for the prophylactic group may be 6.4 mg/kg, and the daily dose for the treatment group may be 12.8 mg/kg. Administration from 3-month old to 9-month old is the prophylactic test, and administration from 9-month old to 12-month old is the therapeutic test After reaching a stated time, the mice in each group received behavioral tests according to the method in the follows. Three mice in each group were taken for Golgi staining. The remaining mice were overly anaesthetized to receive brain anatomy. One side of the cerebral hemisphere was frozen and then for a biochemical analysis, and the other side of the cerebral hemisphere was fixed with 4% paraform for a histological analysis.
Immunohistochemistry in the method of bleach section was carried out according to the previous steps. The primary antibodies were rabbit-anti-mouse CD45 antibody (for labelling microglias), rabbit-anti-mouse GFAP (for labelling astrocytes) and rabbit-anti-mouse pSer396-Tau antibody, respectively. […]

[4] = test system: NEP; experiment: Western blot of Aβ metabolizing enzymes in brain: NEP; format: in vivo; conditions: AD mice brain
Method: (§1) APPswe/PS1DE9 (AD) transgenic mice were purchased from Jackson Laboratory, USA (No. 005864), raised in the SPF grade animal house of The Third Affiliated Hospital of The Third Military Medical University. All the processes and correlated experiments applied to the mice were approved and filed with the Animal Ethics Committee of the Third Military Medical University. […] Alternatively, the daily dose for the prophylactic group may be 6.4 mg/kg, and the daily dose for the treatment group may be 12.8 mg/kg. […]
(§2) The enzymes related with Aβ formation and degradation their molecule levels, the levels of hyperphosphprylated Tau proteins, and the levels of synaptic plasticity correlated proteins were all detected with Western blot. […] The blotting was detected with the following antibodies: APP C terminal antibody (171610, Millipore), BACE1 antibody (Millipore), Aβ antibody (6E10, Abcam), Nepriiysin antibody (Millipore), RAGE antibody (Millipore), LRP antibody (5A6, Calbiochem), IDE antibody (epitomics), phosphorylated Tau protein antibody, including pS396 (Signalway), pT231 (Signalway), pS199 (epitomics), pS262 (Abcam), SNAP25 antibody (Millipore), Synaptophysin antibody (Millipore), Synapsin I antibody (Millipore), VAMP1 antibody (Millipore), PSD95 antibody (Millipore), F-actin antibody (Actin) (Sigma-Aldrich). […]

[5] = test system: β-secretase (BACE1); experiment: Western blot of BACE1 expression in brain; format: in vivo; conditions: AD mice brain
Method: as §1, §2

Sequence of Aβ42 (P05067 672-713 limits assumed): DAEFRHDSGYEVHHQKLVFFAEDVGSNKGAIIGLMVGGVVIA

## CC1=NN(c2ccccc2)C(=O)C1 [Edaravone, 3-methyl-1-phenyl-2-pyrazolin-5-one]
[1]
  inhibition at 3 µM: 50%
[2]
  open field probe distance: significantly higher than in the control group
  open field rearings: significantly higher than in the control group
[3]; p.o.
  astrocyte reaction level in the brain: significantly reduced, too
[3]; prophylactic and therapeutic test
  astrocyte reaction in the brain: all reduced significantly
[4]
  influence on NEP: no influence
[5]
  expression of β-secretase (BACE1): significant decrease
